Patent publication US5939403A, “Keratan sulfate oligosaccharide fraction and pharmaceutical containing the same” (Seikagaku Corporation, priority 1994, dated 1999)
Counter-ions that a name gives are not always drawn.

Test system: foot edema reversed passive Arthus reaction
Assay: Foot edema reversed passive Arthus reaction
Type: in vivo, Male Crj:SD rats
Protocol: The effect of the keratan sulfate oligosaccharide was examined on the foot edema reversed passive Arthus reaction of rats, which is a type III allergic inflammation model. That is, the rabbit antiovalbumin serum was subcutaneously administered to the planta of the rats which were previously subjected to the administration of the test substances, furthermore ovalbumin was administered by injection into the caudal vein thereof to induce inflammation (edema), and the inhibitory effect on edema of the test substances was examined.
Male Crj:SD rats of five weeks old were subjected to a fast of about 17 hours after a week period of quarantine, and, before inducing inflammation, subjected to the administration of the purified keratan sulfate tetrasaccharide (I) which was prepared in Example 1, indomethacin (Sigma; Lot No. 19F0018), or dexamethasone (Banyu Pharmaceutical); Decadron injection; Lot No. 8D307P) as the test substances, or saline (Otsuka Pharmaceutical; Lot No. K3H72) as the negative control. The keratan sulfate tetrasaccharide (I) and dexamethasone were dissolved in saline, respectively, and the indomethacin was dissolved in 0.5% sodium carboxymethylcellulose (CMC-Na; Wako Pure Chemical Industries; Lot No. PTN1418) in use. The volume of dose was 0.5 ml per 100 g weight in each test. Concerning the route of administration, the keratan sulfate tetrasaccharide (I), saline, and dexamethasone were administered from the caudal vein, and the indomethacin was orally administered. And the substances except for indomethacin were administered by the blind method.
The dose and administration schedule of each test substance were as follows. Each group consisted of five animals.
The rabbit antiovalbumin serum was subcutaneously administered to each of the rats described above on the planta thereof, and ovalbumin was further administered by injection into the caudal vein to induce inflammation foot edema. The antiserum used was prepared as follows. That is, to the regions of back of rabbits, 1 ml of the equivalently mixed solution (emulsion) of the saline containing 2% ovalbumin (10 mg per one animal, Egg Albumin 5×Cryst, Lot No. P93601; Seikagaku Corporation) and the Freund's complete adjuvant (FCA) was intradermally injected once a week three times totally to subject themselves to sensitization. About 34 days after the last sensitization, the blood was drawn to obtain the antiserum. The antibody titer of the antiserum obtained was determined by the double layer method. Namely, the determination was performed using the white precipitation reaction of the antiserum diluted with saline and the saline containing 0.1% ovalbumin (1 mg/ml) as the indicator. As a result, the antibody titer of the antiserum obtained was x2^7.
After the period which is designed for each group, each 0.1 ml of the sixfold diluted antiserum was subcutaneously administered to the planta of left rear foot of the rats which were subjected to the administration of each test substance. Then, the saline containing 0.5% ovalbumin (25 mg/5 ml/kg) was administered into the caudal vein to induce inflammation. The volume of the treated feet in each group was determined before inducing inflammation, and one, two, three and four hours after inducing inflammation by a foot volume determining device (TK-101, Unicom) to yield the foot edematization rate from the difference from the value before the induction, and the edematization inhibitory rate of the test substance administered group to the control group was calculated. In each edematization rate obtained, the difference between the averages was tested by the minimum significant difference test. The foot edematization rate and the edematization inhibitory rate of each administered group are shown in Table 9, and the foot edematization rate of the administered groups which was subjected to the administration of the agent at five minutes and at three hours before inducing inflammation are shown in FIG. 6 and FIG. 7, respectively. […]

Q: Which results are given for `CC(=O)N[C@H]1[C@H](O[C@H]2[C@@H](O)[C@@H](COS(=O)(=O)O)O[C@@H](O[C@H]3[C@H](O)[C@@H](NC(C)=O)C(O)O[C@@H]3COS(=O)(=O)O)[C@@H]2O)O[C@H](COS(=O)(=O)O)[C@@H](O[C@@H]2O[C@H](COS(=O)(=O)O)[C@H](O)[C@H](O)[C@H]2O)[C@@H]1O` (stereo partly drawn) [keratan sulfate tetrasaccharide (I), Gal(6S)β1-4GlcNAc(6S)β1-3Gal(6S)β1-4GlcNAc(6S)]?
A: Inhibitory Rate (1 Hour Later, 1 mg/kg i.v. at 5 minutes before inducing edema): 28.7%; Edematization Rate (1 Hour Later, 1 mg/kg i.v. at 5 minutes before inducing edema, P < 0.01, control 40.9): 29.2 ± 1.3%; Inhibitory Rate (1 Hour Later, 1 mg/kg i.v. at 3 hours before inducing edema): 13.4%; Edematization Rate (1 Hour Later, 1 mg/kg i.v. at 3 hours before inducing edema, control 40.9): 35.4 ± 1.6%; Inhibitory Rate (1 Hour Later, 3 mg/kg i.v. at 5 minutes before inducing edema): 15.8%; Edematization Rate (1 Hour Later, 3 mg/kg i.v. at 5 minutes before inducing edema, control 40.9): 34.4 ± 5.2%; Inhibitory Rate (1 Hour Later, 3 mg/kg i.v. at 3 hours before inducing edema): 10.6%; Edematization Rate (1 Hour Later, 3 mg/kg i.v. at 3 hours before inducing edema, control 40.9): 36.5 ± 3.5%; Inhibitory Rate (1 Hour Later, 10 mg/kg i.v. at 5 minutes before inducing edema): 28.9%; Edematization Rate (1 Hour Later, 10 mg/kg i.v. at 5 minutes before inducing edema, P < 0.01, control 40.9): 29.1 ± 3.7%; Inhibitory Rate (1 Hour Later, 10 mg/kg i.v. at 3 hours before inducing edema): -8.1%; Edematization Rate (1 Hour Later, 10 mg/kg i.v. at 3 hours before inducing edema, control 40.9): 44.2 ± 3.4%; Inhibitory Rate (2 Hours Later, 1 mg/kg i.v. at 5 minutes before inducing edema): 36.5%; Edematization Rate (2 Hours Later, 1 mg/kg i.v. at 5 minutes before inducing edema, P < 0.01, control 46.3): 29.4 ± 2.9%; Inhibitory Rate (2 Hours Later, 1 mg/kg i.v. at 3 hours before inducing edema): 8.4%; Edematization Rate (2 Hours Later, 1 mg/kg i.v. at 3 hours before inducing edema, control 46.3): 42.4 ± 3.6%; Inhibitory Rate (2 Hours Later, 3 mg/kg i.v. at 5 minutes before inducing edema): 8.6%; Edematization Rate (2 Hours Later, 3 mg/kg i.v. at 5 minutes before inducing edema, control 46.3): 42.3 ± 4.2%; Inhibitory Rate (2 Hours Later, 3 mg/kg i.v. at 3 hours before inducing edema): 23.9%; Edematization Rate (2 Hours Later, 3 mg/kg i.v. at 3 hours before inducing edema, P < 0.01, control 46.3, 3 mg/kg): 35.3%; Edematization Rate (2 Hours Later, 3 mg/kg i.v. at 3 hours before inducing edema, P < 0.01, control 46.3, listed as Keratan Sulfate Tetrasaccharide (I), 3 mg/kg): 35.3 ± 2.3%; Inhibitory Rate (2 Hours Later, 10 mg/kg i.v. at 5 minutes before inducing edema): 9.1%; Edematization Rate (2 Hours Later, 10 mg/kg i.v. at 5 minutes before inducing edema, control 46.3): 42.1 ± 2.9%; Inhibitory Rate (2 Hours Later, 10 mg/kg i.v. at 3 hours before inducing edema): 0.4%; Edematization Rate (2 Hours Later, 10 mg/kg i.v. at 3 hours before inducing edema, control 46.3): 46.1 ± 2.6%; Inhibitory Rate (3 Hours Later, 1 mg/kg i.v. at 5 minutes before inducing edema): 17.0%; Edematization Rate (3 Hours Later, 1 mg/kg i.v. at 5 minutes before inducing edema, P < 0.01, control 51.2): 42.3 ± 3.6%; Inhibitory Rate (3 Hours Later, 1 mg/kg i.v. at 3 hours before inducing edema): 8.4%; Edematization Rate (3 Hours Later, 1 mg/kg i.v. at 3 hours before inducing edema, control 51.2): 46.7 ± 2.6%; Inhibitory Rate (3 Hours Later, 3 mg/kg i.v. at 5 minutes before inducing edema): 9.5%; Edematization Rate (3 Hours Later, 3 mg/kg i.v. at 5 minutes before inducing edema, control 51.2): 46.1 ± 2.2%; Inhibitory Rate (3 Hours Later, 3 mg/kg i.v. at 3 hours before inducing edema): 21.5%; Edematization Rate (3 Hours Later, 3 mg/kg i.v. at 3 hours before inducing edema, P < 0.01, control 51.2): 40.1 ± 2.8%; Inhibitory Rate (3 Hours Later, 10 mg/kg i.v. at 5 minutes before inducing edema): 12.3%; Edematization Rate (3 Hours Later, 10 mg/kg i.v. at 5 minutes before inducing edema, control 51.2): 44.8 ± 5.1%; Inhibitory Rate (3 Hours Later, 10 mg/kg i.v. at 3 hours before inducing edema): 18.7%; Edematization Rate (3 Hours Later, 10 mg/kg i.v. at 3 hours before inducing edema, P < 0.01, control 51.2, 10 mg/kg): 41.5%; Edematization Rate (3 Hours Later, 10 mg/kg i.v. at 3 hours before inducing edema, P < 0.01, control 51.2, listed as Keratan Sulfate Tetrasaccharide (I), 10 mg/kg): 41.5 ± 1.8%; Inhibitory Rate (4 Hours Later, 1 mg/kg i.v. at 5 minutes before inducing edema): 11.3%; Edematization Rate (4 Hours Later, 1 mg/kg i.v. at 5 minutes before inducing edema, control 44.9): 39.8 ± 3.0%; Inhibitory Rate (4 Hours Later, 1 mg/kg i.v. at 3 hours before inducing edema): 15.5%; Edematization Rate (4 Hours Later, 1 mg/kg i.v. at 3 hours before inducing edema, P < 0.05, control 44.9, 1 mg/kg): 38%; Edematization Rate (4 Hours Later, 1 mg/kg i.v. at 3 hours before inducing edema, P < 0.05, control 44.9, listed as Keratan Sulfate Tetrasaccharide (I), 1 mg/kg): 38.0 ± 3.5%; Inhibitory Rate (4 Hours Later, 3 mg/kg i.v. at 5 minutes before inducing edema): 17.1%; Edematization Rate (4 Hours Later, 3 mg/kg i.v. at 5 minutes before inducing edema, P < 0.05, control 44.9, 3 mg/kg): 37.2%; Edematization Rate (4 Hours Later, 3 mg/kg i.v. at 5 minutes before inducing edema, P < 0.05, control 44.9, listed as Keratan Sulfate Tetrasaccharide (I), 3 mg/kg): 37.2 ± 3.1%; Inhibitory Rate (4 Hours Later, 3 mg/kg i.v. at 3 hours before inducing edema): 24.4%; Edematization Rate (4 Hours Later, 3 mg/kg i.v. at 3 hours before inducing edema, P < 0.01, control 44.9): 33.9%; Inhibitory Rate (4 Hours Later, 10 mg/kg i.v. at 5 minutes before inducing edema): 21.2%; Edematization Rate (4 Hours Later, 10 mg/kg i.v. at 5 minutes before inducing edema, P < 0.01, control 44.9): 35.4%; Inhibitory Rate (4 Hours Later, 10 mg/kg i.v. at 3 hours before inducing edema): 23.2%; Edematization Rate (4 Hours Later, 10 mg/kg i.v. at 3 hours before inducing edema, P < 0.01, control 44.9): 34.5%; foot edematization rate, significance (result in words) (after an hour, administration at five minutes before inducing inflammation): the significant difference was observed in the 1 mg/kg administered group and the 10 mg/kg administered group; foot edematization rate, significance (result in words) (an hour after inducing inflammation, administration at three hours before): significant difference was not observed an hour after inducing inflammation
